Values quoted from earlier work, collected in patent US20210260012A1, “COMPOSITIONS FOR THE PREVENTION AND TREATMENT OF CUTANEOUS AFFECTIONS” (I.C.F. SRL, priority 2018, published 2021).

Test system: biofilms from E. coli
Conditions: at high concentrations

Compound: CC(=O)NC(CS)C(=O)O (stereo not drawn) [Acetylcysteine, α-acetamido-β-mercaptopropanoic acid]
- reduction in the mass of biofilms: up to 55%
